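How tested: cells in 96-well plates exposed to compound for 48 hours at five concentrations. GI50 = concentration required for 50% inhibition of growth.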 The source made the active and inactive calls. Rule as the data show it: active = GI50 up to about 1.1 µM and inactive = higher. Bounds are passed on as bounds.

Test systems include CCRF-CEM; COLO 205; EKVX; HL-60; HOP-62; HT-29; IGROV-1; LOX IMVI; MOLT-4; Malme-3M; NCI-H23; NCI/ADR-RES; OVCAR-3; OVCAR-5; RPMI-8226; SF-295; SK-MEL-28; SK-MEL-5; U-251; UACC-62.
Holding throughout (assay): NCI-60 cell line screen, 48 h

Regarding `c1ccc2cc3c(cc2c1)OP1(Oc2cccc4cccnc24)(O3)Oc2cc3ccccc3cc2O1`, the GI50 was 0.984 µM (active) in the test with CCRF-CEM; 6.32 µM (inactive) in the test on COLO 205; 3.37 µM (inactive) in the test with EKVX; 1.63 µM (inactive) with HL-60; 21 µM (inactive) in the test on HOP-62; 2.9 µM (inactive) in the test with HT-29. For the same compound, the GI50 is 5.36 µM (inactive) with IGROV-1; 3.72 µM (inactive) in the test with LOX IMVI; 1.57 µM (inactive) with MOLT-4; 7.21 µM (inactive) with Malme-3M; 2.71 µM (inactive) in the test with NCI-H23; 1.28 µM (inactive) in the test on NCI/ADR-RES. For the same compound, the GI50 in the test with OVCAR-3 is 1.58 µM (inactive); in the test on OVCAR-5 it was 4.43 µM (inactive); in the test on RPMI-8226, 1.07 µM (active); in the test on SF-295 it was 4.67 µM (inactive); in the test with SK-MEL-28, 15.8 µM (inactive); in the test on SK-MEL-5 it was 3.17 µM (inactive). Further, the GI50 in the test with U-251 was 6.85 µM (inactive); with UACC-62, 3.05 µM (inactive).
In the case of `CCOC(=O)C[n+]1ccc2c([nH]c3cc(OC)ccc32)c1C`, the GI50 was > 96.2 µM (inactive) with CCRF-CEM; > 71.6 µM (inactive) in the test with COLO 205; > 100 µM (inactive) with EKVX; > 75.7 µM (inactive) in the test on HL-60; > 78.3 µM (inactive) with HOP-62; > 100 µM (inactive) with HT-29. Also, the GI50 was > 100 µM (inactive) with IGROV-1; 71.8 µM (inactive) in the test with LOX IMVI; > 67 µM (inactive) in the test with MOLT-4; > 100 µM (inactive) with Malme-3M; > 100 µM (inactive) in the test on NCI-H23; > 100 µM (inactive) with NCI/ADR-RES. The GI50 is > 79.1 µM (inactive) in the test on OVCAR-3; > 100 µM (inactive) in the test with OVCAR-5; > 100 µM (inactive) with RPMI-8226; 69.2 µM (inactive) in the test with SF-295; > 100 µM (inactive) in the test on SK-MEL-28; > 77.8 µM (inactive) in the test on SK-MEL-5. For the same compound, the GI50 in the test on U-251 was > 77.4 µM (inactive); in the test with UACC-62, > 100 µM (inactive).
`CCC(/C=C/c1ccccc1)=N\Nc1ccc(Cl)c(Cl)c1`: the GI50 is 62.4 µM (inactive) in the test with CCRF-CEM; 24.9 µM (inactive) with COLO 205; 30.3 µM (inactive) in the test with EKVX; 27.8 µM (inactive) with HL-60; 41.9 µM (inactive) in the test with HOP-62; 35.8 µM (inactive) in the test with HT-29. In addition, the GI50 in the test with IGROV-1 was 5.14 µM (inactive); with LOX IMVI, 22.8 µM (inactive); in the test with MOLT-4 it was 31 µM (inactive); in the test with Malme-3M, 32.1 µM (inactive); with NCI-H23, 30.9 µM (inactive); in the test on NCI/ADR-RES, 31.9 µM (inactive). The GI50 was 25.7 µM (inactive) in the test on OVCAR-3; 66.1 µM (inactive) with OVCAR-5; 19.1 µM (inactive) in the test with RPMI-8226; 34.7 µM (inactive) in the test with SF-295; 48.1 µM (inactive) in the test with SK-MEL-28; 13.8 µM (inactive) in the test on SK-MEL-5. Moreover, the GI50 with U-251 was 3.22 µM (inactive); with UACC-62, 13.9 µM (inactive).
`Cc1ccc(OP2(=O)Oc3ccc4ccccc4c3CN2c2ccc(Cl)cc2)cc1C` (stereo not given): the GI50 in the test on CCRF-CEM, with COLO 205, in the test on EKVX, with HL-60, in the test with HOP-62 and with HT-29 was > 100 µM (inactive) throughout. Also, the GI50 in the test on IGROV-1, with LOX IMVI, in the test with MOLT-4, in the test on Malme-3M, in the test with NCI-H23 and in the test on NCI/ADR-RES was > 100 µM (inactive) throughout. The GI50 with OVCAR-3, in the test with OVCAR-5, in the test on RPMI-8226, in the test with SF-295, in the test on SK-MEL-28 and in the test on SK-MEL-5 was > 100 µM (inactive) each time. For the same compound, the GI50 in the test on U-251 and in the test on UACC-62 was > 100 µM (inactive) throughout.
In the case of `S=C(NCCCCCCNC(=S)Nc1c2ccccc2nc2ccccc12)Nc1c2ccccc2nc2ccccc12`, the GI50 is 63 µM (inactive) in the test with CCRF-CEM; 50.5 µM (inactive) with COLO 205; > 100 µM (inactive) with EKVX; 77.1 µM (inactive) with HL-60; > 89.3 µM (inactive) with HOP-62; 54.5 µM (inactive) in the test with HT-29. Moreover, the GI50 in the test with IGROV-1 was > 81.5 µM (inactive); in the test with LOX IMVI, 72.4 µM (inactive); with MOLT-4, 32.4 µM (inactive); in the test on Malme-3M, > 100 µM (inactive); in the test with NCI-H23, > 100 µM (inactive); in the test on NCI/ADR-RES, > 88.1 µM (inactive). Moreover, the GI50 in the test with OVCAR-3 is > 90.2 µM (inactive); with OVCAR-5, > 84.1 µM (inactive); in the test on RPMI-8226, 95.5 µM (inactive); in the test with SF-295, 68.4 µM (inactive); with SK-MEL-28, > 100 µM (inactive); with SK-MEL-5 it was > 93.1 µM (inactive). The GI50 in the test on U-251 was > 91.8 µM (inactive); in the test on UACC-62, > 100 µM (inactive).
As to `O=C(O)C1CCC(=O)N1S(=O)(=O)c1ccccc1` (stereo not given), the GI50 in the test with CCRF-CEM, in the test on COLO 205, with EKVX, with HL-60, in the test with HOP-62 and in the test with HT-29 was > 100 µM (inactive) throughout. Also, the GI50 in the test with IGROV-1, in the test with LOX IMVI, in the test with MOLT-4, in the test on Malme-3M, in the test with NCI-H23 and with NCI/ADR-RES was > 100 µM (inactive) in each case. The GI50 in the test with OVCAR-3, in the test with OVCAR-5, in the test with RPMI-8226, in the test on SF-295, in the test with SK-MEL-28 and in the test on SK-MEL-5 was > 100 µM (inactive) in each case. Besides, the GI50 in the test on U-251 and in the test on UACC-62 was > 100 µM (inactive) in each case.
Turning to `CSCSCC(N)CO.Cc1[nH]c(=O)[nH]c(=O)c1/C=C/C(=O)O`, the GI50 with CCRF-CEM, in the test on COLO 205, in the test on EKVX, in the test with HL-60, with HOP-62 and in the test on HT-29 was > 625 µM (inactive) each time. Besides, the GI50 is > 625 µM (inactive) in the test with IGROV-1; > 625 µM (inactive) in the test with LOX IMVI; 590 µM (inactive) in the test on MOLT-4; > 625 µM (inactive) with Malme-3M; > 625 µM (inactive) in the test with NCI-H23; > 625 µM (inactive) in the test with NCI/ADR-RES. Besides, the GI50 is > 625 µM (inactive) with OVCAR-3; > 625 µM (inactive) in the test on OVCAR-5; > 625 µM (inactive) with RPMI-8226; 582 µM (inactive) in the test with SF-295; > 625 µM (inactive) with SK-MEL-28; > 625 µM (inactive) in the test with SK-MEL-5. Also, the GI50 in the test with U-251 and in the test on UACC-62 was > 625 µM (inactive) in each case.
For the compound `O=c1oc2cc(O)ccc2c2oc3cc(O)ccc3c12` [COUMESTROL], the GI50 is 8.81 µM (inactive) with CCRF-CEM; 26 µM (inactive) in the test with COLO 205; 77.4 µM (inactive) in the test on EKVX; 6.93 µM (inactive) in the test with HL-60; 16 µM (inactive) in the test with HOP-62; 49 µM (inactive) in the test on HT-29. Moreover, the GI50 in the test with IGROV-1 is 79.8 µM (inactive); in the test with LOX IMVI, 42.1 µM (inactive); in the test on MOLT-4 it was 13.8 µM (inactive); in the test with Malme-3M, 79.6 µM (inactive); in the test with NCI-H23, 58.5 µM (inactive); with NCI/ADR-RES, 108 µM (inactive). Besides, the GI50 was 45.2 µM (inactive) in the test on OVCAR-3; > 125 µM (inactive) in the test with OVCAR-5; 45.8 µM (inactive) with RPMI-8226; 76 µM (inactive) in the test on SF-295; > 125 µM (inactive) in the test on SK-MEL-28; 9.91 µM (inactive) in the test on SK-MEL-5. The GI50 with U-251 is 33.3 µM (inactive); in the test on UACC-62, 71.6 µM (inactive).

The values are drawn from ChEMBL document CHEMBL1201862, “PubChem BioAssay data set” (2004).
